Reference: ChEMBL document CHEMBL1201862, “PubChem BioAssay data set” (2004)
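Values below derive from 48-hour exposures of cells grown in 96-well plates, with endpoints linearly interpolated between the two concentrations bracketing the appropriate inhibition level. Here, GI50 denotes the concentration required for 50% inhibition of growth.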 Calls of active or inactive are those of the source. Cut-off read from the data, not from the text of the source: active = GI50 up to about 1.1 µM and inactive = higher.

Assays:
Experiment in all cases: inhibition of tumour cell growth, NCI panel, 48 h
[1] = tested on: NCI-H226
[2] = tested on: SNB-75
[3] = tested on: HOP-92
[4] = tested on: SF-268
[5] = tested on: SK-MEL-28
[6] = tested on: SW-620
[7] = tested on: NCI-H23
[8] = tested on: SF-295
[9] = tested on: M14
[10] = tested on: ACHN
[11] = tested on: HCT-15
[12] = tested on: COLO 205
[13] = tested on: TK-10
[14] = tested on: RPMI-8226
[15] = tested on: UACC-257
[16] = tested on: CCRF-CEM
[17] = tested on: IGROV-1

Structure (SMILES)	GI50 [1]	GI50 [2]	GI50 [3]	GI50 [4]	GI50 [5]	GI50 [6]	GI50 [7]	GI50 [8]	GI50 [9]	GI50 [10]	GI50 [11] [µM]	GI50 [12]	GI50 [13]	GI50 [14]	GI50 [15]	GI50 [16]	GI50 [17]
COC(=O)C1[C@H](c2cc(OC)c(OC)c(OC)c2)OC(=O)C1(C(=O)OC)C(=O)c1ccc2c(c1)OCO2 (stereo not given in full)	> 100 µM (inactive)	> 100 µM (inactive)	> 100 µM (inactive)	> 100 µM (inactive)	> 100 µM (inactive)	> 100 µM (inactive)	> 100 µM (inactive)	> 100 µM (inactive)	> 100 µM (inactive)	> 100 µM (inactive)	> 100	> 100 µM (inactive)	> 100 µM (inactive)	> 100 µM (inactive)	> 100 µM (inactive)	> 100 µM (inactive)	> 100 µM (inactive)
O=C1NC(=O)/C(=N\c2cccc3c(=O)[nH][nH]c(=O)c23)C(c2nc3ccccc3s2)C1=O (stereo not given)	> 100 µM (inactive)	> 100 µM (inactive)	> 100 µM (inactive)	> 100 µM (inactive)	> 100 µM (inactive)	> 100 µM (inactive)	> 100 µM (inactive)	> 100 µM (inactive)	> 100 µM (inactive)	> 100 µM (inactive)	> 100	> 100 µM (inactive)	> 100 µM (inactive)		> 100 µM (inactive)	55.2 µM (inactive)	> 100 µM (inactive)
O=c1[nH]cc(COCCO)c(=O)[nH]1	> 100 µM (inactive)	> 100 µM (inactive)	> 100 µM (inactive)	> 100 µM (inactive)	> 100 µM (inactive)	> 100 µM (inactive)	> 100 µM (inactive)	> 100 µM (inactive)	> 100 µM (inactive)	> 100 µM (inactive)	> 100	> 100 µM (inactive)	> 100 µM (inactive)	> 100 µM (inactive)	> 100 µM (inactive)	> 100 µM (inactive)	> 100 µM (inactive)
N=C(N)NS(=O)(=O)c1ccc(NC(=O)c2cccc3c(N)c4ccccc4nc23)cc1	> 100 µM (inactive)	96.2 µM (inactive)		> 100 µM (inactive)	> 100 µM (inactive)	> 100 µM (inactive)	> 100 µM (inactive)	> 100 µM (inactive)	> 100 µM (inactive)	> 100 µM (inactive)	> 100	> 100 µM (inactive)	> 100 µM (inactive)	> 100 µM (inactive)	> 100 µM (inactive)	92.3 µM (inactive)	> 100 µM (inactive)
CCSc1nc2n(c(=S)n1)CCN2C	18.6 µM (inactive)	15.5 µM (inactive)		27.9 µM (inactive)	20.1 µM (inactive)	19.7 µM (inactive)		21.9 µM (inactive)	15.8 µM (inactive)	19.1 µM (inactive)	17.5			22 µM (inactive)	12.1 µM (inactive)		17.7 µM (inactive)
COc1ccc(OC)c(NC(=O)C2=C(C)NC(C)=C(C(=O)Nc3cc(OC)ccc3OC)C2c2ccccc2)c1		22.8 µM (inactive)	6.41 µM (inactive)	63.7 µM (inactive)	22.6 µM (inactive)	> 100 µM (inactive)	> 100 µM (inactive)	80.4 µM (inactive)	> 100 µM (inactive)	30 µM (inactive)	> 100	> 100 µM (inactive)	> 100 µM (inactive)	4.91 µM (inactive)	> 100 µM (inactive)	48.4 µM (inactive)	> 100 µM (inactive)
COc1ccc(C2NC(c3ccc(OC)cc3)C(C)C(=O)C2C)cc1 (stereo not given)		34 µM (inactive)	> 100 µM (inactive)	> 100 µM (inactive)	> 100 µM (inactive)		> 100 µM (inactive)	> 100 µM (inactive)	> 100 µM (inactive)	> 100 µM (inactive)	> 100	> 100 µM (inactive)	> 100 µM (inactive)	34.2 µM (inactive)	> 100 µM (inactive)	> 100 µM (inactive)	> 100 µM (inactive)
COc1ccc2c(c1)[n+]([O-])c(-c1ccc(Cl)c(Cl)c1)c(N)[n+]2[O-]	45.1 µM (inactive)	44.7 µM (inactive)	> 100 µM (inactive)	37.1 µM (inactive)	27 µM (inactive)	38.9 µM (inactive)	15.8 µM (inactive)	78.3 µM (inactive)	25.7 µM (inactive)	42.6 µM (inactive)	33.3	19 µM (inactive)		31.3 µM (inactive)	16.4 µM (inactive)		27 µM (inactive)
COc1ccccc1N1C(=O)C2c3[nH]c4ccccc4c3C3CCC(C(C)(C)C)CC3C2C1=O (stereo not given)	> 100 µM (inactive)	> 100 µM (inactive)	> 100 µM (inactive)	> 100 µM (inactive)	> 100 µM (inactive)	> 100 µM (inactive)	> 100 µM (inactive)	> 100 µM (inactive)	> 100 µM (inactive)	> 100 µM (inactive)	> 100	> 100 µM (inactive)		> 100 µM (inactive)	> 100 µM (inactive)	> 100 µM (inactive)	> 100 µM (inactive)
